PMC3174134, “Lucanthone and Its Derivative Hycanthone Inhibit Apurinic Endonuclease-1 (APE1) by Direct Protein Binding” (PLoS ONE, 2011)

What was measured:
[1] = target: APE1 (Homo sapiens, UniProt P27695); assay: APE1 cleavage in whole cell extracts of U251 1-5 APE1 overexpressor clone, Western blot with protease inhibitor cocktail; set-up: the full length APE1 protein was successfully expressed and purified; made in house; host or cells: E. coli BL21/DE3; conditions: U251 1-5 whole cell extracts, 2 h, 37°C
Protocol: (§1) Total purified protein concentration was determined by the ratio of A280/A260. 250 ng of APE1 treated with lucanthone or hycanthone (0.05–100 µM) for 2 h at 37°C in final volume of 30 µl were mixed with an equal volume of gel loading buffer (0.001% bromophenol blue, 4% SDS, 10% 2-ME, 20% glycerol, and 125 mM Tris pH 6.8) and denatured at 95°C for 5 min. Total protein concentration in cell extracts was determined using the Bradford assay (BioRad, Hercules, CA) and 25 µg of total protein from soluble or insoluble cell fractions were mixed with an equal volume of gel loading buffer (0.001% bromophenol blue, 4% SDS, 10% 2-ME, 20% glycerol, and 125 mM Tris pH 6.8) and denatured at 95°C for 5 min. This mixture was separated by SDS-PAGE (4% stacking, 7.5% resolving gel) for 2–3 h at 40 mA on a BioRad MiniPROTEAN II Electrophoresis Cell. To detect proteins, proteins were transferred onto a trans-Blot nitrocellulose membrane (0.45 µm; BioRad) overnight at 4°C at 15 mA in standard Tris-Glycine buffer containing 20% ethanol. […] Chemi-luminescence was developed using an ECL kit according to the manufacturer's instructions and detected by exposing the blot to HyperfilmECL for 30 s–3 min. […]

[2] = target: T1, APE1 single mutants (F266A or W280S) (Homo sapiens, UniProt P27695, F266A); assay: Endonuclease activity of APE1 hydrophobic site mutants with lucanthone; type: biochemical; conditions: 100 µM lucanthone, 2 h, 37°C
T1 construct: made in house
Protocol: APE1 endonuclease activity was determined using an assay that measures the conversion of plasmid DNA from supercoiled to relaxed form by incision at an abasic site [35]–[36]. Briefly, the substrate used was 200 ng of depurinated pUC18 DNA in 10 µl of 1× APE1 buffer containing 50 mM Hepes, pH 7.4, 150 mM KCl, 5 mM MgCl2 and 100 µg/ml of BSA in presence of different concentrations of the cell extract (1 µl containing 0–55 ng of total protein). Similar reactions mixtures were set up with untreated pUC18, which served as the internal control. This reaction mixture was incubated at 37°C for 15 min, and the reaction was stopped by addition of alkaline stop mix (0.25% bromocresol green in 0.25N NaOH, 50% glycerol) and left at room temperature for 10–15 min. Then the products were resolved on a 0.8% agarose gel in 40 mM Tris-acetate and 2 mM EDTA for 2 h. The gel was stained with ethidium bromide to visualize supercoiled and relaxed plasmid DNA and imaged with a digital imaging system and the area under the supercoiled and relaxed form was determined. Final calculations were done in femtomoles (fmol) of abasic sites incised/min/mg protein with normalization done using Pyruvate Kinase units (PKU) present in these extracts. […] The endonuclease activity inhibition by lucanthone was analyzed using standard Lineweaver-Burke Plot to determine if the inhibition was competitive or non-competitive.

[3] = test system: tubulin; assay: Tubulin stability in U251 1-5 whole cell extracts, Western blot; conditions: lucanthone 2.5-100 µM; CRT at 200 µM
Protocol: as §1

[4] = target: T2, human Nth (Homo sapiens, UniProt P78549); assay: Circular dichroism of human Nth with lucanthone; conditions: 140 µM lucanthone, 37°C, 60 min
T2 sequence (P78549 23-304): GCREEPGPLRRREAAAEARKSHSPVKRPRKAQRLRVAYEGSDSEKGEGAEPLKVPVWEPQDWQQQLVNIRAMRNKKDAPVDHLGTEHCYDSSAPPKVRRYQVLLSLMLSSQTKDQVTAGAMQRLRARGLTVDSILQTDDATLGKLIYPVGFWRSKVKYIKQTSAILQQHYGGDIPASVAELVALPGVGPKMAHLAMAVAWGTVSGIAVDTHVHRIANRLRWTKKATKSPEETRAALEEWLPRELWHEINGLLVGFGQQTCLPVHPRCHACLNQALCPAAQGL

[5] = test system: APE1 mutants F266A, F266C, F266A/W280A, D210N; assay: Circular dichroism of APE1 mutant proteins with lucanthone; set-up: species or system human; conditions: 140 µM lucanthone, 14 µM protein, 37°C, 60 min
Protocol: (§2) APE1 and its mutant proteins (10 mg/ml), 50 µl (500 µg) (14 µM) in APE1 buffer (50 mM HEPES, pH 7.4, 150 mM KCl, 5 mM MgCl2), were mixed with lucanthone/hycanthone (1 mg/ml), 50 µl (50 µg), 140 µM and incubated at 37°C for 60 min and far UV-CD spectra were recorded at NSLS U11 beam line at BNL. Lucanthone and hycanthone were also scanned as drug controls. The scanning parameters used were a 0.001 cm path length quartz cell, scanning wavelengths from 260 to 170 nm, bandwidth of 0.5 nm, digital integration time of 1 s, time constant of 200 ms, step size of 1 nm, and sensitivity of 200 µV. The data were corrected with blank subtraction from APE1 buffer alone. The secondary structure for APE1 with or without lucanthone or hycanthone was analyzed using CDSSTR program DICHROWEB [38].

[6] = target: T3, APE1 mutants F266A, F266C, F266A/W280A, D210N (Homo sapiens, UniProt P27695, F266A/W280A); assay: as above; conditions: 140 µM lucanthone, 14 µM protein, 37°C, 60 min
T3 construct: made in house
Protocol: as §2

[7] = test system: APE1 mutant proteins; assay: Cleavage of mutant APE1 proteins by lucanthone, Western blot; set-up: species or system human; conditions: 100 µM lucanthone, 37°C, 2 h
Protocol: as §1

T3 sequence (P27695 2-318 F266A/W280A): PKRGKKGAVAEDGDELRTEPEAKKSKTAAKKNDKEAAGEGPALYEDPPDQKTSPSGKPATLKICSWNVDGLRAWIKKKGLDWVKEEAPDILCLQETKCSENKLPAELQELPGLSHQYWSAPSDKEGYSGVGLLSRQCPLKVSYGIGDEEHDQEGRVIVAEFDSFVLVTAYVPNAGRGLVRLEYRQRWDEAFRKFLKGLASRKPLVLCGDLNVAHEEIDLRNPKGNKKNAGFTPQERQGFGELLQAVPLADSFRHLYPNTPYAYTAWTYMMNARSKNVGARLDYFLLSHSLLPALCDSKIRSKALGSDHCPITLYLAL
Sequence of APE1 (P27695 whole entry): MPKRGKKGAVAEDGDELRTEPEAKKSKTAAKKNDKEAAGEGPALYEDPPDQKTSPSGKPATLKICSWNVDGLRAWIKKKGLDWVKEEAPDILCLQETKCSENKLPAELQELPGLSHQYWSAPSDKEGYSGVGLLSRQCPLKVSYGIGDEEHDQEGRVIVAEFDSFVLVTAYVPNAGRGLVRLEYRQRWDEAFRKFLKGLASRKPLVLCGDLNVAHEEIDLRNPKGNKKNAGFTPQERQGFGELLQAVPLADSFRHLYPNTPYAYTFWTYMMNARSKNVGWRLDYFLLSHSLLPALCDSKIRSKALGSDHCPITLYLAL
T1 sequence (P27695 2-318 F266A): as the sequence (P27695 2-318 F266A/W280A) above, with A279W counted along it

CCN(CC)CCNc1ccc(C)c2sc3ccccc3c(=O)c12 [lucanthone, 1-[2-diethylaminoethylamino]-4-methylthioxanthen-9-one]
Concentration causing cleavage of APE1 [1]: 50 µM | Inhibition of endonuclease activity of single mutants F266A or W280S [2]: no inhibition was detected | Effect on tubulin protein [3]: unaffected | Conformational change of human Nth (CD) [4]: little conformational changes | Conformational change of wild type and D210N active site mutant APE1 (CD) [5]: able to induce conformational changes | Conformational change of double mutant F266A/W280A (CD) [6]: almost no conformational change | Cleavage of hydrophobic site mutants except W280S [7]: did not undergo cleavage
